These results are taken from PubChem BioAssay AID1253 (Columbia University Molecular Screening Center, 2008).

For this experiment, the target named is Tyrosine-protein phosphatase non-receptor type 22 (Homo sapiens) (UniProt Q9Y2R2). The experiment in a line: PTPN22 enzyme inhibition – biochemical, DiFMUP fluorescence, retest and dose response, confirmation (AID 1253). The settings on record: recombinant LYP; for inhibition: at 10 µM, hits give high values.

The source made the active and inactive calls.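 Rule for the calls: active = IC50 under 10 µM in the follow-up dose response; inactive = IC50 10 µM or more, or under 40% single-dose inhibition.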

Sequence of Tyrosine-protein phosphatase non-receptor type 22 (Homo sapiens) (Q9Y2R2 whole entry, looked up): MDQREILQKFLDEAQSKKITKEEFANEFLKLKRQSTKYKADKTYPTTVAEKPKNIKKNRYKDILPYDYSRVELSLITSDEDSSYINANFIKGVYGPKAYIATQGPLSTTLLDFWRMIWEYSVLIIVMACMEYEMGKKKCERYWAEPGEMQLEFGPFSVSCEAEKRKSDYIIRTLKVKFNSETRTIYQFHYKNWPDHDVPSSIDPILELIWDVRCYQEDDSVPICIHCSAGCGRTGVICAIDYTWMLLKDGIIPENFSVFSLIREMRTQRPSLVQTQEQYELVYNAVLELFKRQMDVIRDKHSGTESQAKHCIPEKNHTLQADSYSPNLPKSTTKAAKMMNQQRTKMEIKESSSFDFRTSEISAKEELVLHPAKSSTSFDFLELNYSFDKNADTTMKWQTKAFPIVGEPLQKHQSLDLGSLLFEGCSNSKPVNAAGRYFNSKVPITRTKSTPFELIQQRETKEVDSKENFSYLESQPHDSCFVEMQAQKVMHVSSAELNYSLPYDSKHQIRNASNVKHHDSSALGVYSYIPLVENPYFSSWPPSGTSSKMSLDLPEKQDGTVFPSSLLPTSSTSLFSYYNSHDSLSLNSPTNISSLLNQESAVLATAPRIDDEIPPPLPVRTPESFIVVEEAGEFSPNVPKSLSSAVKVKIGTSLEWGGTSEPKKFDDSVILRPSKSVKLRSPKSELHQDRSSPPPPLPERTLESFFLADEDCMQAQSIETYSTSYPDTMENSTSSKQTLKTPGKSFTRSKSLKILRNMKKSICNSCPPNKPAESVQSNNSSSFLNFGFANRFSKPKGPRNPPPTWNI

For `Cc1nn(-c2ccccc2)c(C)c1/C=N/NC(=O)c1cc(C23CC4CC(CC(C4)C2)C3)[nH]n1`, the inhibition result was “inactive”. On the same count and under the same terms, then `COC(=O)c1sccc1-n1cccc1C(=O)N1CCOCC1`, with “inactive”; and `CN1CCn2c1nc(N1CCOCC1)nc2=O`, with “inactive”; and `Cc1cc(C)cc(-n2c3nc4ccccc4nc3c3c(=O)n(Cc4ccco4)cnc32)c1`, with “inactive”. The same measure, in the same setting: then `Cc1ccc(CSC2=Nc3ccccc3C3=NC(CC(=O)NCc4ccco4)C(=O)N23)cc1` (centres undefined), with “inactive”; and `CCNC(=O)COc1cc(C)c(Cl)c(C)c1`, with “inactive”; and `CCOc1ccc(-c2csc(N)c2C(=O)OC)cc1`, with “inactive”. Same read-out and setting: then `CCCCCCc1cc2cc(-c3nnc(-c4ccccc4OC)o3)c(=O)oc2cc1O`, with “inactive”. Consider `C(=C/c1ccnc2nc(SC/C=C/c3ccccc3)nn12)/c1ccccc1`, for which the inhibition entry was “inactive”. The same measure, in the same setting: then `CC(=O)Nc1ccc(NC(=O)c2ccccc2CC[N+](=O)[O-])cc1`, with “inactive”; and `O=C(Nc1nc(-c2ccccn2)cs1)c1ncc(Cl)c(Cl)c1Cl`, with “inactive”; and `COc1ccc(S(=O)(=O)Nc2ccc(S(=O)(=O)N3CCCCC3)cc2)cc1`, with “inactive”. Same read-out and setting: next, `O=C(CCC(=O)OC(C(=O)c1ccccc1)c1ccccc1)Nc1ccccc1` (centres undefined): “inactive”; `CC(C)C(CCNC(=O)CC(Cc1ccccc1)c1ccco1)c1ccco1` (centres undefined): “inactive”. The same measure, in the same setting: next, `Clc1ccc(C2=Nn3c(nnc3-c3cc(-c4ccccc4)n[nH]3)SC2)cc1`: “inactive”; `O=C(Cn1c(-c2ccc(Cl)cc2)noc1=O)N1CCN(c2ccccc2F)CC1`: “inactive”; `Cc1nc2ccc(S(=O)(=O)NCC(=O)NCc3ccc4c(c3)OCO4)cc2s1`: “inactive”.

On to `COc1ccc(C2C(=O)N(C3CCCCC3)CC(=O)N2C2CCCCC2)cc1` (centres undefined), for which the inhibition result is “inactive”. On the same count and under the same terms, next, `Nn1cnnc1N/N=C/c1cc(Br)cc(Br)c1O`: “inactive”; `COc1ccc(C2C(C#N)=C(N)N(c3sc4c(c3C#N)CCCC4)C3=C2C(=O)CC(C)(C)C3)cc1OC` (centres undefined): “inactive”; `C=CCNC(=S)NNC(=O)c1cccn(Cc2ccc(Cl)cc2)c1=O`: “inactive”. A word on the IC50: it is the concentration that gives 50% inhibition. Consider `O=C(O)CCCN1C(=O)/C(=C/c2ccc(-c3nc4ccccc4s3)o2)SC1=S`, for which the IC50 is 1130 nM. For `O=C(Nc1ccc2oc(-c3ccc(Cl)c(Cl)c3)nc2c1)c1ncn[nH]1`, the inhibition entry was “inactive”.

With `COc1ccc2c(C)cc(SCC(=O)Nc3c(C)n(C)n(-c4ccccc4)c3=O)nc2c1`, the inhibition entry is “inactive”. On the same count and under the same terms, then `S=c1[nH]nc(COc2ccccc2)n1/N=C/C(Cl)=C/c1ccccc1`, with “inactive”. The same measure, in the same setting: then `COCCCNC(=O)c1cccn2c(=O)c3cc4ccccc4cc3nc12`, with “inactive”; and `C=CCNC(=S)NNC(=O)c1cccn(Cc2ccc(Cl)cc2Cl)c1=O`, with “inactive”. Still for that read-out and setting: then `Cc1ccccc1Cn1ccc(NC(=O)CCSc2nc(-c3ccco3)cc(C(F)(F)F)n2)n1`, with “inactive”. Regarding `O=C(Nc1ccc2oc(-c3ccc4ccccc4c3)nc2c1)c1ccc2c(c1)OCCO2`, the inhibition entry was “inactive”. On the same count and under the same terms, then `CCOC(=O)Cc1csc(NC(=S)NC(=O)c2ccc(Cl)cc2)n1`, with “inactive”. Still for that read-out and setting: then `O=C(NNC(=O)c1ccc2ccccc2c1O)c1ccccc1Cl`, with “inactive”. Same read-out and setting: then `CCOC(=O)c1cn(-c2nc(-c3ccc(Cl)c(Cl)c3)cs2)c2c(F)c(N3CCOCC3)c(F)cc2c1=O`, with “inactive”. Regarding `CCCCN(C(=O)CSc1nnc(Nc2ccc(C)c(C)c2)s1)c1c(N)n(Cc2ccccc2)c(=O)[nH]c1=O`, the inhibition entry was “inactive”. On the same count and under the same terms, next, `O=C(O)CCCCCNc1nc(=S)[nH]c2ccccc12`: “inactive”. On the same count and under the same terms, then `COCCn1c(Cc2ccccc2)nnc1SCc1nc2ccccc2c(=O)[nH]1`, with “inactive”.

Take `c1ccc(-c2ccc(C3=Nn4c(nnc4-c4cc(-c5ccccc5)n[nH]4)SC3)cc2)cc1`: the inhibition result is “inactive”.

As to `O=[N+]([O-])c1ccc(N2CCN(S(=O)(=O)c3ccc(Cl)cc3)CC2)cc1NCc1cccnc1`, the inhibition entry is “inactive”.

In the case of `O=C1C2C(C(=O)N1CCc1ccccc1)C1C=CC2C12CC2` (centres undefined), the inhibition result was “inactive”. With `CCN(CC)CCCNC(=O)c1c(O)c2ccccc2n(Cc2ccccc2)c1=O`, the inhibition result is “inactive”. For the compound `CCNC(=S)NNC(=O)c1cccn(Cc2ccc(Cl)cc2)c1=O`, the inhibition result was “inactive”.

Take `O=C(c1cccs1)c1no[n+]([O-])c1C(=O)c1cccs1`: the IC50 is 1660 nM.

With `Cc1cccc(N(C(=O)c2ccc(Cl)cc2)C2CS(=O)(=O)CC2OC(=O)c2ccc(Cl)cc2)c1` (centres undefined), the inhibition entry was “inactive”. The same measure, in the same setting: next, `O=C(NC(C(=O)N/N=C/c1ccccc1)c1n[nH]c(=O)c2ccccc12)c1ccccc1` (centres undefined): “inactive”. Still for that read-out and setting: next, `CCCNc1cc(=O)n(C)c(=O)n1C`: “inactive”. On the same count and under the same terms, then `COc1ccc(C(=O)c2sc3nc(-c4ccccc4)ccc3c2N)cc1OC`, with “inactive”; and `Nc1nnnn1/N=C/c1ccccc1C(F)(F)F`, with “inactive”. As to `Cc1ccc(Cn2c(=N)c(C(=O)NCc3ccco3)cc3c(=O)n4ccccc4nc32)cc1`, the inhibition entry was “inactive”. The same measure, in the same setting: next, `Cc1nc(NC(=O)CC(C)C)sc1-c1csc(Nc2ccc(Cl)cc2)n1`: “inactive”; `Nc1nnc(SCC(=O)Nc2ccc(S(=O)(=O)N3CCOCC3)cc2)s1`: “inactive”; `CCCC(=O)Nc1ccc2c(c1)nc(CCNC(=O)c1ccccc1)n2C`: “inactive”.

For the compound `O=C(Nc1cnc2ccccc2c1)C1COc2ccccc2O1` (centres undefined), the inhibition entry was “inactive”. Take `CC(C)C(C(=O)O)N1C(=O)/C(=C/C=C/c2ccco2)SC1=S` (centres undefined): the IC50 is 2940 nM. `CC1CCc2c(C(=O)Nc3nccs3)csc2C1` (centres undefined): the inhibition entry was “inactive”. Regarding `O=C(Cn1cnc2ccccc21)Nc1ccc(C(=O)O)cc1`, the inhibition result was “inactive”.

For the compound `Cc1ccc(NC(=O)CN2C(=O)S/C(=C\c3cccn3-c3cccc(C(=O)O)c3)C2=O)c(C)c1`, the IC50 is 1270 nM. Consider `COc1ccccc1/C=C\C=N\n1c(C2CCCCC2)n[nH]c1=S`, for which the inhibition result is “inactive”. On the same count and under the same terms, then `Cc1ccc(NC(=O)CN2C(=O)S/C(=C/c3ccc(-c4cc(C(=O)O)ccc4C)o3)C2=O)cc1C`, with “inactive”; and `CC(C)(C)c1cc(NCCCn2ccnc2)n2ncc(-c3ccc(Cl)cc3)c2n1`, with “inactive”; and `CNC(=S)NNC(=O)c1cccn(Cc2ccc(Cl)c(Cl)c2)c1=O`, with “inactive”.

`CCC(C)n1c(C)nc2c(c1=O)c1nc3ccccc3nc1n2CCC1=CCCCC1` (centres undefined): the inhibition entry is “inactive”. In the case of `O=C(O)CCN1C(=O)/C(=C/c2ccc(-c3nc4ccccc4s3)o2)SC1=S`, the IC50 was 1450 nM. Turning to `Clc1ccc(C2=C3CCCCn4c(-c5ccccc5)c[n+](c43)C2)cc1`, the inhibition result is “inactive”.

Consider `CN(C)/C=C/C(=O)c1ccc(F)cc1`, for which the inhibition entry was “inactive”. On the same count and under the same terms, then `CSc1ccc(/C=N\NC(=O)COc2ccc(Cl)cc2Br)cc1`, with “inactive”.
